Values belong to the compound of their own block, whether it stands above or below them. Activity calls are given as the source filed them.
Experiments:
[1] = molecular target: Intestinal-type alkaline phosphatase (Mus musculus, UniProt P24822); test: PubChem AID 488874; format: functional
[2] = Luminescence Cell-Based Dose Retest to Confirm Inhibitors of Cancer Stem Cells. [Related pubchem assays (depositor defined):AID2717, AID2721]; format: functional, Homo sapiens; conditions: Homo sapiens
Large T antigen = Large T antigen (Simian virus 40, UniProt P03070); format: functional, Betapolyomavirus macacae;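 note: Confirmatory-stage PubChem screen for compounds that inhibit SV40 T antigen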
Large T antigen, sequence (P03070 whole entry): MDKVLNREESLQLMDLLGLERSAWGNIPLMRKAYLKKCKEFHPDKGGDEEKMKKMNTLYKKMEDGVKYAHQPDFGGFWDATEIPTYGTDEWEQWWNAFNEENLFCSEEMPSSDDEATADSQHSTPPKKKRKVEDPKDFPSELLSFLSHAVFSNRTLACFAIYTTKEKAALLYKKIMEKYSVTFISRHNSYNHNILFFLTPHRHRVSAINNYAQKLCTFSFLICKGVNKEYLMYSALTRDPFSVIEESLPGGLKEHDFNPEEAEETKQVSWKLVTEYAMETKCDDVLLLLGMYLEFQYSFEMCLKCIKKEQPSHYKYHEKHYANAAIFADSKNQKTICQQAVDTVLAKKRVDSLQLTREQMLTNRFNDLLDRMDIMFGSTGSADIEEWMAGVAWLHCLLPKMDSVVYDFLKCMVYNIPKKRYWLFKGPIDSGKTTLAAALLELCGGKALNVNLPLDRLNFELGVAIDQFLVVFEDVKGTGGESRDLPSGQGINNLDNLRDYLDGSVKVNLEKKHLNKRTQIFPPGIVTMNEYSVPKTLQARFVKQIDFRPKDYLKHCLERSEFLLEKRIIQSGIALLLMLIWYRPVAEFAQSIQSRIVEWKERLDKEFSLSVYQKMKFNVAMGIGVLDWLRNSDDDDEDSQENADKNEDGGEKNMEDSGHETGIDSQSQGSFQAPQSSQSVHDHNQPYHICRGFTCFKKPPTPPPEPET

[3] = molecular target: Glutathione-S-transferase (Schistosoma japonicum, UniProt Q26513); test: GST-antibody interaction or FRET quenching – biochemical, TR-FRET, artefact control for Vif-APOBEC3G degradation inhibitor project, dose response (AID 1117362); format: functional
[4] = molecular target: T1, Histone-lysine N-methyltransferase NSD2 (Homo sapiens, UniProt O96028); format: biochemical
T1 sequence (O96028 whole entry): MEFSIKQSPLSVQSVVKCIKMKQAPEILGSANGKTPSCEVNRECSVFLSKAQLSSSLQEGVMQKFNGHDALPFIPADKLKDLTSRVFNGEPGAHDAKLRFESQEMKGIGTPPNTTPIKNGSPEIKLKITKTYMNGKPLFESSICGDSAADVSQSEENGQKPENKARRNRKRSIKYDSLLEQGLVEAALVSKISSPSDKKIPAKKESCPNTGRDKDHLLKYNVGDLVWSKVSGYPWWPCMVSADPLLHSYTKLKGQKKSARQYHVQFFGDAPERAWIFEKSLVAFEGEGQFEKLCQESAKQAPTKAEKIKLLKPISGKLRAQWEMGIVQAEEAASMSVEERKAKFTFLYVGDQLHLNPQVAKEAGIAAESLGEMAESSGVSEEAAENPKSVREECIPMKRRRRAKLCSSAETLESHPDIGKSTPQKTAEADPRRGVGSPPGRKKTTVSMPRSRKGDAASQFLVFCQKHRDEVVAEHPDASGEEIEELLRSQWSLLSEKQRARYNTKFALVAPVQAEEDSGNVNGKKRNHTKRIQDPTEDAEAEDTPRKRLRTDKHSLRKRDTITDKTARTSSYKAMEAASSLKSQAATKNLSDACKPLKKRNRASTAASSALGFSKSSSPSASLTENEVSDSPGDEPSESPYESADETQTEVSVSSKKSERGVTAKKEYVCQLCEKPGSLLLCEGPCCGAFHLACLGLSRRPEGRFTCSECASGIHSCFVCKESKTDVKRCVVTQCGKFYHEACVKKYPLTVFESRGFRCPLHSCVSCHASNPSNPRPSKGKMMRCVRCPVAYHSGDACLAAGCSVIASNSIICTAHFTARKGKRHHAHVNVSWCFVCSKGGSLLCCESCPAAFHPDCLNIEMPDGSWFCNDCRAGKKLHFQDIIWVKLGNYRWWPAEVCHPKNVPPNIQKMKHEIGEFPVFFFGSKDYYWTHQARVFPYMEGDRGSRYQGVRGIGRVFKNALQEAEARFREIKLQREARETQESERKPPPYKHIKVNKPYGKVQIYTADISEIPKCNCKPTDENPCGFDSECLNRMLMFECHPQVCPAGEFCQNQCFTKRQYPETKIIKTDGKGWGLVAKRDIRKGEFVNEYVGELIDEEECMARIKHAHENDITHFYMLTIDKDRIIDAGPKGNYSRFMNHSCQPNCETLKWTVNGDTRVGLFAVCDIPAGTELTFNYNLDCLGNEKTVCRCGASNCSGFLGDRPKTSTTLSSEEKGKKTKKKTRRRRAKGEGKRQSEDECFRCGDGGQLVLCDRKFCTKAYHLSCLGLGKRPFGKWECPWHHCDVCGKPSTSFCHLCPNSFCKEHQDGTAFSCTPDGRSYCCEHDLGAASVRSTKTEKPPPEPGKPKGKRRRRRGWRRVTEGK

[5] = molecular target: Serine/threonine-protein kinase Nek2 (Homo sapiens, UniProt P51955); format: functional
Serine/threonine-protein kinase Nek2, sequence (P51955 whole entry): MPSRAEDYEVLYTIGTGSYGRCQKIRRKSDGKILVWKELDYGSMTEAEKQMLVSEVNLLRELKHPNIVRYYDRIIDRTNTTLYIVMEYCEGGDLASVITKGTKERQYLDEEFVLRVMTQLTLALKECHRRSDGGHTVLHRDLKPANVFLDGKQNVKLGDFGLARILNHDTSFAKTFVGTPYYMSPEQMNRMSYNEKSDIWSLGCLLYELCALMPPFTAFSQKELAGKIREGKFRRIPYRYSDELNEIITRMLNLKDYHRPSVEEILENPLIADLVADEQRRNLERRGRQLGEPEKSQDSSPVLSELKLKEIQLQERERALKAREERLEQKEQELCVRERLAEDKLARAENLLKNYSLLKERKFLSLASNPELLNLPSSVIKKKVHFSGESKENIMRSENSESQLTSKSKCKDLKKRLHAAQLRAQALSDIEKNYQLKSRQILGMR

Misshapen-like kinase 1 = Misshapen-like kinase 1 (Homo sapiens, UniProt Q8N4C8); format: functional;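 note: kinome panel screen with MINK as the panel member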
[6] = molecular target: Casein kinase II subunit alpha (Homo sapiens, UniProt P68400); format: functional
Casein kinase II subunit alpha, sequence (P68400 whole entry): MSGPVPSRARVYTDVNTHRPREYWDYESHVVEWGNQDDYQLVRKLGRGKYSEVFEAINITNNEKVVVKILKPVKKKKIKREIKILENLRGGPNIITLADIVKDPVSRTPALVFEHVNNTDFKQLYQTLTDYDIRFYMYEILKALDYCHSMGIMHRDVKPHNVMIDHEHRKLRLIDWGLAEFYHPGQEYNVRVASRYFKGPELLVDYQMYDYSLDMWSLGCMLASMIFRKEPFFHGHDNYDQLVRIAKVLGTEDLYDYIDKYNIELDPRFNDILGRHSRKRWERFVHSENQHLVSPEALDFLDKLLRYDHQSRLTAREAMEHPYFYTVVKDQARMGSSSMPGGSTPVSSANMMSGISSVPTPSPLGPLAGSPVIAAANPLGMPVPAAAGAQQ

[7] = molecular target: Protein kinase C gamma type (Homo sapiens, UniProt P05129); format: functional
[8] = molecular target: BDNF/NT-3 growth factors receptor (Homo sapiens, UniProt Q16620); format: functional;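 note: NTRK2 measured as one member of a broad kinome-wide kinase profiling panel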
[9] = molecular target: Mitogen-activated protein kinase 12 (Homo sapiens, UniProt P53778); format: functional;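 note: measured as one member of a kinome-wide kinase profiling panel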
Mitogen-activated protein kinase 12, sequence (P53778 whole entry): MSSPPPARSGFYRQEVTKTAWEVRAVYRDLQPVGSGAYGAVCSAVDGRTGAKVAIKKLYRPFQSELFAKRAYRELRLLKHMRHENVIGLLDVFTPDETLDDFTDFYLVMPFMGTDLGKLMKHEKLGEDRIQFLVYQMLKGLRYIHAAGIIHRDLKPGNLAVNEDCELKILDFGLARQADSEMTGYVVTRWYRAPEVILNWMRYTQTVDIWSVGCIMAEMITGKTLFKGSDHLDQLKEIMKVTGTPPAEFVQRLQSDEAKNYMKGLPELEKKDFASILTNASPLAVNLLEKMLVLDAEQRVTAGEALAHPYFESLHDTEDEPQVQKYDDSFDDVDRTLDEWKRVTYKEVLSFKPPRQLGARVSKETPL

[10] = molecular target: Maternal embryonic leucine zipper kinase (Homo sapiens, UniProt Q14680); format: functional
[11] = molecular target: Lymphokine-activated killer T-cell-originated protein kinase (Homo sapiens, UniProt Q96KB5); format: functional;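 note: value comes from a kinase panel screen in which TOPK was one of the panel members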
[12] = molecular target: Fibroblast growth factor receptor 1 (Homo sapiens, UniProt P11362); format: functional
[13] = molecular target: Homeodomain-interacting protein kinase 4 (Homo sapiens, UniProt Q8NE63); format: functional
Homeodomain-interacting protein kinase 4, sequence (Q8NE63 whole entry): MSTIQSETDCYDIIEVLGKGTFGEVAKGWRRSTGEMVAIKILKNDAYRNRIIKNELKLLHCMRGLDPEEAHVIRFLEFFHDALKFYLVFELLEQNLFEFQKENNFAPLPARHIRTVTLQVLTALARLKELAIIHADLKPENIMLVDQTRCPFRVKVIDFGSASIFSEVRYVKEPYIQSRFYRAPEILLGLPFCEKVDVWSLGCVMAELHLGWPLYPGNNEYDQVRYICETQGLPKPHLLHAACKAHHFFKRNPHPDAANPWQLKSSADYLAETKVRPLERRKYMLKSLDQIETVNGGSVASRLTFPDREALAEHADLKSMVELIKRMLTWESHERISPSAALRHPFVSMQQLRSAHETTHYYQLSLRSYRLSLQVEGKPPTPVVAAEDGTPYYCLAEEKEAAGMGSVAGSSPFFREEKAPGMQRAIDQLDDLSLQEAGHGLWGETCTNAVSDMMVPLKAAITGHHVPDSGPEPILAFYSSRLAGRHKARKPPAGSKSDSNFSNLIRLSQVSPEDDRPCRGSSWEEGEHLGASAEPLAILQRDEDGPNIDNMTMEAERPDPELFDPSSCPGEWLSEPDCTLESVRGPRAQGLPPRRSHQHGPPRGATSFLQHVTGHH

[14] = molecular target: Serine/threonine-protein kinase pim-2 (Homo sapiens, UniProt Q9P1W9); format: functional;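 note: value comes from a broad kinase panel profiling study in which PIM2 was one of the panel members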
Serine/threonine-protein kinase pim-2, sequence (Q9P1W9 whole entry): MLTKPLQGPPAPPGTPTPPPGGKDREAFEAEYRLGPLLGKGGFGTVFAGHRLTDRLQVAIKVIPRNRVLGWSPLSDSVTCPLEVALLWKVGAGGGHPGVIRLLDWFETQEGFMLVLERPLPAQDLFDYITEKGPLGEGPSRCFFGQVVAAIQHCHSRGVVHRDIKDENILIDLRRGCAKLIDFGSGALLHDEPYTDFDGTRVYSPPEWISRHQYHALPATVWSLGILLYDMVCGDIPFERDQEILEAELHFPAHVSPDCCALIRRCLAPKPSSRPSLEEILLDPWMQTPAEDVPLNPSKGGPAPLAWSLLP

[15] = molecular target: Cyclin-dependent kinase 8 (Homo sapiens, UniProt P49336); test: Navigating the Kinome. Panel member name: CDK8; format: functional
Cyclin-dependent kinase 8, sequence (P49336 whole entry): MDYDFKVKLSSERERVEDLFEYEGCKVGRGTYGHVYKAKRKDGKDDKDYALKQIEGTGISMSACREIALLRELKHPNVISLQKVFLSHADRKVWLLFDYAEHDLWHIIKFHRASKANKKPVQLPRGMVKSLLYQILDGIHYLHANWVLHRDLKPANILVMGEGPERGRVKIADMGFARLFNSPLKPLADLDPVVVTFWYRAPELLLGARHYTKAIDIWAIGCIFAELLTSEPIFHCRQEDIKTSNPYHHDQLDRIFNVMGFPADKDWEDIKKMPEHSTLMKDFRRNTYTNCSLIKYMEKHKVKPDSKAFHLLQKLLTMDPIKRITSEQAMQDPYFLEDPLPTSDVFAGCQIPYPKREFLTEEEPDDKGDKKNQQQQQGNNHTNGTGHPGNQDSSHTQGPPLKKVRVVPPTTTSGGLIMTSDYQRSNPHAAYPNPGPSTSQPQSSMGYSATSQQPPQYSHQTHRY

[16] = molecular target: cAMP-dependent protein kinase catalytic subunit PRKX (Homo sapiens, UniProt P51817); format: functional
cAMP-dependent protein kinase catalytic subunit PRKX, sequence (P51817 whole entry): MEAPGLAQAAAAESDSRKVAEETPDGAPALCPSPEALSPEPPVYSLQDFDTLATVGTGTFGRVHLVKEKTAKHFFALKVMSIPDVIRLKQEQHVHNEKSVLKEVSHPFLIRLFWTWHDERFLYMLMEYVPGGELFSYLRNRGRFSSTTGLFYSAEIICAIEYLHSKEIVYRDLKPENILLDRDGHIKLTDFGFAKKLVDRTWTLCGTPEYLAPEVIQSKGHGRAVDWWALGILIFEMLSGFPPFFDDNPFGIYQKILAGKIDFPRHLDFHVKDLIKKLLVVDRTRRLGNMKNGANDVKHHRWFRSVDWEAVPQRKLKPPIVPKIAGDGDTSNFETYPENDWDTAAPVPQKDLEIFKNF

[17] = molecular target: Receptor tyrosine-protein kinase erbB-4 (Homo sapiens, UniProt Q15303); format: functional;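 note: ERBB4 member of a kinome-wide kinase profiling panel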
[18] = molecular target: cGMP-dependent protein kinase 1 (Homo sapiens, UniProt Q13976); format: functional;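 note: value from a kinome panel screen with PRKG1 as the panel member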
Caspase-6 = molecular target: T2, Caspase-6 (Homo sapiens, UniProt P55212); test: inhibition of CASP6 peptide cleavage – biochemical, VEID-R110 fluorescence, cherry-pick, dose response (AID 720632)
T2 sequence (P55212 whole entry): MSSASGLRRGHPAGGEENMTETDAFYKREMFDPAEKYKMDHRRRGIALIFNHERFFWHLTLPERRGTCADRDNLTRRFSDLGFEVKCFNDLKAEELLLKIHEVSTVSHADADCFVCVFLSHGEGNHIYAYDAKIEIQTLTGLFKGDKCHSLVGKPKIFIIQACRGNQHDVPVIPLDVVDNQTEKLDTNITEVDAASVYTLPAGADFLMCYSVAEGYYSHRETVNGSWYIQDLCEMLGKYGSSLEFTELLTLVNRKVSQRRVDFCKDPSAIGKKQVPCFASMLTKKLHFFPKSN

Genome polyprotein = Genome polyprotein (dengue virus type 2, UniProt P29990); test: flavivirus cap methylation enzyme inhibition – biochemical, confirmation dose response, primary screen (AID 588689); format: functional

Intestinal-type alkaline phosphatase, sequence (P24822 whole entry): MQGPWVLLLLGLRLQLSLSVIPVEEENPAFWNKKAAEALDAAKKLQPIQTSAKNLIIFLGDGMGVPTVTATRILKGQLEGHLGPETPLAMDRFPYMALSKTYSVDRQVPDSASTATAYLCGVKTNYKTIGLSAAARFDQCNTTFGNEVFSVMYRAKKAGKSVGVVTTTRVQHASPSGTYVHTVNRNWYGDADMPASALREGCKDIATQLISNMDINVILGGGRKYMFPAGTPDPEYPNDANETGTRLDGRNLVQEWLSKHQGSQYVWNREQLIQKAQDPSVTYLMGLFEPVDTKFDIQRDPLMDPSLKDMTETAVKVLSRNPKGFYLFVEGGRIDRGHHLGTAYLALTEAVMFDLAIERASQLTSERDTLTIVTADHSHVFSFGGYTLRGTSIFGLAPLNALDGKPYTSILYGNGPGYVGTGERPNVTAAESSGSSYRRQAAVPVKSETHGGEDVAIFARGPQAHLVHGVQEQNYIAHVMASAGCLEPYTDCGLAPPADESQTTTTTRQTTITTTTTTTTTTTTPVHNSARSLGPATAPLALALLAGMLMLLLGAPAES

Structure (SMILES): Oc1ccc(N=Nc2c(O)ccc3ccccc23)cc1
IC50 [1]: 17400 nM (active)
AC50 [2]: 2380 nM (active)

Structure (SMILES): O=C(O)C1Nc2c(O)cc(Cl)c([N+](=O)[O-])c2C2C=CCC12 (stereo not drawn)
IC50 (Large T antigen): 9860 nM (active)
IC50 [3]: > 100000 nM (active)

Structure (SMILES): O=C1C=C(N2CCCCC2)c2ccccc2C1=O
AC50 [4]: 1110 nM (active)

Ki [5]: > 10000 nM (inactive)
Ki (Misshapen-like kinase 1): 25.1 nM (active)
Ki [6]: 3980 nM (active)
Ki [7]: 6.31 nM (active)
Ki [8]: > 5010 nM (inactive)
Ki [9]: 398 nM (active)
Ki [10]: 79.4 nM (active)
Ki [12]: 5010 nM (active)
Ki [13]: 1580 nM (active)
Ki [14]: 10 nM (active)
Ki [15]: 1.58 nM (active)
pKi [15]: 8.8
Ki [16]: 1 nM (active)
Ki [17]: > 3980 nM (inactive)
Ki [18]: 10 nM (active)
Structure (SMILES): Cc1n[nH]c2ccc(-c3cncc(OCC(N)Cc4cccc(Cl)c4)c3)cc12 (stereo not drawn)
Ki [11]: 2510 nM (active)

Structure (SMILES): CC(=O)NC1C(=O)N(CCN2CCOCC2)c2ccc(F)cc21 (stereo not drawn)
AC50 (Caspase-6): 16000 nM (active)

IC50 (Genome polyprotein): 51600 nM (active)
Structure (SMILES): O=C1N=C(NS(=O)(=O)Cc2ccccc2)S/C1=C1\C(=O)Nc2ccccc21

— ChEMBL document CHEMBL1201862, “PubChem BioAssay data set” (2004)
